Target: T1, human CCR6 (Homo sapiens, UniProt P51684)
T1 construct: expressed in transfected cells; host or cells: HEK-293
T1 sequence (P51684 1-374): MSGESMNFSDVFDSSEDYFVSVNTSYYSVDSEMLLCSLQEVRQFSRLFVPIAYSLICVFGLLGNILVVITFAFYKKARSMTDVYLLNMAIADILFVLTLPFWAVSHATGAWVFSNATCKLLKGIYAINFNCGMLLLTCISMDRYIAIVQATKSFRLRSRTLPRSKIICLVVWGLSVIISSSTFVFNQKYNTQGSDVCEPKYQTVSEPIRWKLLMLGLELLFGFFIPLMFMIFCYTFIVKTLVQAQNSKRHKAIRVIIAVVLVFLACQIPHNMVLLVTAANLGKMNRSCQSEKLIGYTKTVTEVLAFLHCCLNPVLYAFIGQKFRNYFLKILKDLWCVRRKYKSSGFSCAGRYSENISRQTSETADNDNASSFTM
Test: FLIPR assay (inhibition of CCL20-induced calcium signal)
Format: cell-based
Conditions: HEK-293 cells expressing human CCR6; mean values where determined several times; read-out: FLIPR IC50
How it was run: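 Dye-loaded HEK-293 cells expressing human CCR6 were preincubated with compound for 30 min at room temperature in the dark, then challenged with 10 nM CCL20 (final). Fluorescence was tracked on FLIPR, and baseline-subtracted peak emission over base after agonist addition gave inhibition dose-response curves for IC50.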

IC50 [nM] | SMILES
337 | CC(C)c1ccc([C@](O)(c2cncc(-c3noc(CNC(=O)CO)n3)c2)C2(C)CN(C)C2)cc1 [Example 335]
207 | [2H]C([2H])([2H])C(=O)NCc1nc(-c2cncc([C@@](O)(c3ccc(C(C)C)cc3)C3(C)CN(C)C3)c2)no1 [Example 336]
95.1 | CC(C)c1ccc([C@](O)(c2cncc(-c3noc(CC(C)(C)O)n3)c2)C2(C)CN(C(C)C)C2)cc1 [Example 337, 1-(3-{5-[(R)-Hydroxy-(1-isopropyl-3-methyl-azetidin-3-yl)-(4-isopropyl-phenyl)-methyl]-pyridin-3-yl}-[1,2,4]oxadiazol-5-yl)-2-methyl-propan-2-ol]
93.8 | CCN1CC(C)([C@](O)(c2ccc(C(C)C)cc2)c2cncc(-c3noc(CC(C)(C)O)n3)c2)C1 [Example 338, 1-(3-{5-[(R)-(1-Ethyl-3-methyl-azetidin-3-yl)-hydroxy-(4-isopropyl-phenyl)-methyl]-pyridin-3-yl}-[1,2,4]oxadiazol-5-yl)-2-methyl-propan-2-ol]
100 | CC(C)c1ccc([C@](O)(c2cncc(-c3noc(C(C)(C)O)n3)c2)C2(C)CN(C(C)C)C2)cc1 [Example 339, 2-(3-{5-[(R)-Hydroxy-(1-isopropyl-3-methyl-azetidin-3-yl)-(4-isopropyl-phenyl)-methyl]-pyridin-3-yl}-[1,2,4]oxadiazol-5-yl)-propan-2-ol]
79.4 | CCN1CC(C)([C@](O)(c2ccc(C(C)C)cc2)c2cncc(-c3noc(C(C)(C)O)n3)c2)C1 [Example 340, 2-(3-{5-[(R)-(1-Ethyl-3-methyl-azetidin-3-yl)-hydroxy-(4-isopropyl-phenyl)-methyl]-pyridin-3-yl}-[1,2,4]oxadiazol-5-yl)-propan-2-ol]
66.6 | CC(C)c1ccc([C@](O)(c2cncc(-c3nc(C4CCN(C(=O)OCc5ccccc5)CC4)no3)c2)C2(C)CN(C)C2)cc1 [Example 341]
154 | CC(=O)N1CCC(c2noc(-c3cncc([C@@](O)(c4ccc(C(C)C)cc4)C4(C)CN(C)C4)c3)n2)CC1 [Example 342]
532 | [2H]C([2H])([2H])C(=O)N1CC(c2nc(-c3cncc([C@@](O)(c4ccc(C(C)C)cc4)C4(C)CN(C)C4)c3)no2)C1 [Example 343]
441 | [2H]C([2H])([2H])C(=O)N1CC(C)(c2nc(-c3cncc([C@@](O)(c4ccc(C(C)C)cc4)C4(C)CN(C)C4)c3)no2)C1 [Example 344]
252 | [2H]C([2H])([2H])C(=O)N1CC(F)(c2nc(-c3cncc([C@@](O)(c4ccc(C(C)C)cc4)C4(C)CN(C)C4)c3)no2)C1 [Example 345]
62.5 | CC(C)c1ccc([C@](O)(c2cncc(-c3noc(C(C)(C)N4CCOCC4)n3)c2)C2(C)CN(C)C2)cc1 [Example 346]
120 | CC(C)c1ccc([C@](O)(c2cncc(-c3noc(C4CCN(C)C(=O)C4)n3)c2)C2(C)CN(C)C2)cc1 (stereo partly shown) [Example 347]
135 | CC(=O)N1CC[C@H](c2nc(-c3cncc([C@@](O)(c4ccc(C(C)C)cc4)C4(C)CN(C)C4)c3)no2)C1 [Example 348]
113 | CC(=O)N1CC[C@@H](c2nc(-c3cncc([C@@](O)(c4ccc(C(C)C)cc4)C4(C)CN(C)C4)c3)no2)C1 [Example 349]
242 | CC(=O)NC(C)(C)c1nc(-c2cncc([C@@](O)(c3ccc(C(C)C)cc3)C3(C)CN(C)C3)c2)no1 [Example 350]
27.6 | CC(C)c1ccc([C@](O)(c2cncc(-c3noc(C4CCN(Cc5ccccc5)C4=O)n3)c2)C2(C)CN(C)C2)cc1 (stereo partly shown) [Example 351]
110 | CC(C)c1ccc([C@](O)(c2cncc(-c3noc(C4(C)CCN(C)C4=O)n3)c2)C2(C)CN(C)C2)cc1 (stereo partly shown) [Example 352]
40.3 | CC(C)CN1CC(c2nc(-c3cncc([C@@](O)(c4ccc(C(C)C)cc4)C4(C)CN(C)C4)c3)no2)CC1=O (stereo partly shown) [Example 353]
29 | CC(C)c1ccc([C@](O)(c2cncc(-c3noc(C4CC(=O)N(Cc5ccco5)C4)n3)c2)C2(C)CN(C)C2)cc1 (stereo partly shown) [Example 354]
24.8 | CC(C)c1ccc([C@](O)(c2cncc(-c3noc(C4CC(=O)N(c5ccccc5)C4)n3)c2)C2(C)CN(C)C2)cc1 (stereo partly shown) [Example 355]
12.7 | CC(C)c1ccc([C@](O)(c2cncc(-c3noc(C4CC(=O)N(Cc5ccccc5)C4)n3)c2)C2(C)CN(C)C2)cc1 (stereo partly shown) [Example 356]
26.1 | CC(C)c1ccc([C@](O)(c2cncc(-c3noc(C4CCC(=O)N4c4ccccc4)n3)c2)C2(C)CN(C)C2)cc1 (stereo partly shown) [Example 357]
131 | CC(C)c1ccc([C@](O)(c2cncc(-c3noc(C4CNC(=O)C4)n3)c2)C2(C)CN(C)C2)cc1 (stereo partly shown) [Example 358]
234 | CC(C)c1ccc([C@](O)(c2cncc(-c3noc([C@@H]4CCC(=O)N4)n3)c2)C2(C)CN(C)C2)cc1 [Example 359]
292 | CC(C)c1ccc([C@](O)(c2cncc(-c3noc([C@H]4CCC(=O)N4)n3)c2)C2(C)CN(C)C2)cc1 [Example 360]

IC50 [nM] | SMILES
164 | CC(C)c1ccc([C@](O)(c2cncc(-c3noc([C@@H]4CCCC(=O)N4)n3)c2)C2(C)CN(C)C2)cc1 [Example 361]
90 | CC(C)c1ccc([C@](O)(c2cncc(-c3noc(C4CCNC(=O)C4)n3)c2)C2(C)CN(C)C2)cc1 (stereo partly shown) [Example 362]
178 | CC(C)c1ccc([C@](O)(c2cncc(-c3noc([C@@H]4CC(=O)N4)n3)c2)C2(C)CN(C)C2)cc1 [Example 363]
142 | CC(C)c1ccc([C@](O)(c2cncc(-c3noc([C@@H]4CNC4=O)n3)c2)C2(C)CN(C)C2)cc1 [Example 364]
321 | CC(C)c1ccc([C@](O)(c2cncc(-c3noc(C4CCNCC4)n3)c2)C2(C)CN(C)C2)cc1 [Example 367]
271 | CC(C)c1ccc([C@](O)(c2cncc(-c3noc(C4(C)CCNCC4)n3)c2)C2(C)CN(C)C2)cc1 [Example 368]
187 | CC(C)c1ccc([C@](O)(c2cncc(-c3noc(C4(F)CCNCC4)n3)c2)C2(C)CN(C)C2)cc1 [Example 369]
65.9 | CCCC(=O)N1CCC(c2nc(-c3cncc([C@@](O)(c4ccc(C(C)C)cc4)C4(C)CN(C)C4)c3)no2)CC1 [Example 370, 1-[4-(3-{5-[(R)-(1,3-Dimethyl-azetidin-3-yl)-hydroxy-(4-isopropyl-phenyl)-methyl]-pyridin-3-yl}-[1,2,4]oxadiazol-5-yl)-piperidin-1-yl]-butan-1-one]
49.7 | CC(C)c1ccc([C@](O)(c2cncc(-c3noc(C4CCN(C(=O)C(C)(C)C)CC4)n3)c2)C2(C)CN(C)C2)cc1 [Example 371]
103 | COCC(=O)N1CCC(c2nc(-c3cncc([C@@](O)(c4ccc(C(C)C)cc4)C4(C)CN(C)C4)c3)no2)CC1 [Example 372]
88.9 | COCCC(=O)N1CCC(c2nc(-c3cncc([C@@](O)(c4ccc(C(C)C)cc4)C4(C)CN(C)C4)c3)no2)CC1 [Example 373]
39 | CC(C)c1ccc([C@](O)(c2cncc(-c3noc(C4CCN(C(=O)C5CC5)CC4)n3)c2)C2(C)CN(C)C2)cc1 [Example 374]
39.7 | CC(C)c1ccc([C@](O)(c2cncc(-c3noc(C4CCN(C(=O)C5CCCC5)CC4)n3)c2)C2(C)CN(C)C2)cc1 [Example 375]
102 | CC(C)c1ccc([C@](O)(c2cncc(-c3noc(C4CCN(C(=O)C5CCOCC5)CC4)n3)c2)C2(C)CN(C)C2)cc1 [Example 376]
39.5 | CC(C)c1ccc([C@](O)(c2cncc(-c3noc(C4CCN(C(=O)c5ccccc5)CC4)n3)c2)C2(C)CN(C)C2)cc1 [Example 377]
54.9 | COC(=O)N1CCC(c2nc(-c3cncc([C@@](O)(c4ccc(C(C)C)cc4)C4(C)CN(C)C4)c3)no2)CC1 [Example 378]
41.2 | CCOC(=O)N1CCC(c2nc(-c3cncc([C@@](O)(c4ccc(C(C)C)cc4)C4(C)CN(C)C4)c3)no2)CC1 [Example 379]
71.5 | COCCOC(=O)N1CCC(c2nc(-c3cncc([C@@](O)(c4ccc(C(C)C)cc4)C4(C)CN(C)C4)c3)no2)CC1 [Example 380]
53.4 | CC(C)c1ccc([C@](O)(c2cncc(-c3noc(C4CCN(S(C)(=O)=O)CC4)n3)c2)C2(C)CN(C)C2)cc1 [Example 381]
43.7 | CC(C)c1ccc([C@](O)(c2cncc(-c3noc(C4CCN(S(=O)(=O)C(C)C)CC4)n3)c2)C2(C)CN(C)C2)cc1 [Example 382]
53.8 | CCCS(=O)(=O)N1CCC(c2nc(-c3cncc([C@@](O)(c4ccc(C(C)C)cc4)C4(C)CN(C)C4)c3)no2)CC1 [Example 383]
42.1 | COCCS(=O)(=O)N1CCC(c2nc(-c3cncc([C@@](O)(c4ccc(C(C)C)cc4)C4(C)CN(C)C4)c3)no2)CC1 [Example 384]
117 | CC(C)c1ccc([C@](O)(c2cncc(-c3noc(C4CCN(S(=O)(=O)CCO)CC4)n3)c2)C2(C)CN(C)C2)cc1 [Example 385]
41 | CC(C)c1ccc([C@](O)(c2cncc(-c3noc(C4CCN(S(=O)(=O)C5CCCC5)CC4)n3)c2)C2(C)CN(C)C2)cc1 [Example 386]
55.1 | CC(C)c1ccc([C@](O)(c2cncc(-c3noc(C4CCN(S(=O)(=O)C5CCOCC5)CC4)n3)c2)C2(C)CN(C)C2)cc1 [Example 387]
28.2 | CNS(=O)(=O)N1CCC(c2nc(-c3cncc([C@@](O)(c4ccc(C(C)C)cc4)C4(C)CN(C)C4)c3)no2)CC1 [Example 388]
